One may read the pKa as the negative logarithm of the acid dissociation constant.

The values that follow come from patent US20260258015A1, “CRYSTALLINE FORMS OF 2-(4-(4-(AMINOMETHYL)-1-OXO-1,2- DIHYDROPHTHALAZIN-6-YL)-1-METHYL-1H- PYRAZOL-5-YL)-4-CHLORO-6-CYCLOPROPOXY-3-FLUOROBENZONITRILE” (MIRATI THERAPEUTICS, INC., priority 2023, published 2026).

The conditions of series [1]: acids (counterions) used in the salt screen of Compound 1; cited from earlier work.
Series [2] in a line: Behaviour of the isolated solid after air drying at ambient condition (hygroscopicity). Format: physicochemical. As to conditions: solid from slurry of free base, sulfuric acid and THF; air dried at ambient condition. How it is done: Using the amorphous free base from Example 1, 64 salt screen experiments were conducted using 16 acids in four solvent systems, plus four blank experiments in each respective solvent system. Slurry methods as disclosed herein were used to provide salt polymorphs of Compound 1. […] After magnetically stirring for four days at room temperature, any precipitation was isolated by centrifugation. If there was no precipitation after four days at room temperature, the clear solutions were transferred to stir at 5° C. to induce crystallization for 24 hours. If still no solids were observed, the final clear solution was subjected to slow evaporation at room temperature for four days. Any isolated solid was air dried at ambient condition before analysis.
[…]. As such, DSC/TGA data were not collected.

`O=C(O)CC(O)C(=O)O` (centres unmarked) [Malic acid]: the pKa in series [1] is recorded as 3.16. Consider `Cn1ncc(-c2ccc3c(=O)[nH]nc(CN)c3c2)c1-c1c(F)c(Cl)cc(OC2CC2)c1C#N.O=S(=O)(O)O` [sulfate salt Form A, 2-(4-(4-(aminomethyl)-1-oxo-1,2-dihydrophthalazin-6-yl)-1-methyl-1H-pyrazol-5-yl)-4-chloro-6-cyclopropoxy-3-fluorobenzonitrile sulfate], for which the “state of the solid after air drying (hygroscopicity)” value in series [2] is “remained a wet paste, likely due to hygroscopicity”.
